Measured values reported in patent US20240033200A1, “SEMI-PERMANENT TATTOOS” (Inkbox Ink Inc., priority 2020, published 2024).

Key:
[1] = Reaction with L-lysine (amino acids) to mimic skin binding; colour and UV-VIS of the dye formed; conditions: for color of solution 1 hr after the addition of L-lysine: 1 hr after L-lysine; for color produced upon reaction with amino acids: Additional Color Combinations; for color of solution after the addition of L-lysine: after addition of L-lysine ("Add Lysine"/"Lysine added"); for color of L-lysine reaction solution after dilution: after dilution (vial at left); for color of solution before the addition of L-lysine: before L-lysine (Time 0); for color of dye produced by reaction with L-lysine / λmax of dye produced after reaction with L-lysine: methanol, 2 equivalents L-lysine, room temperature; for color of dye produced by reaction with L-lysine: open air; for λmax of dye produced after reaction with L-lysine: open air (44 hours for Compound 1, overnight for others)
Protocol: Compound 1 was weighed out (0.03 mmol) into a small vial equipped with a magnetic stir bar. To this vial, 1 mL of methanol was added and stirred until solubilized. L-lysine was then added to the stirred solution (2 equivalents) and the reaction mixture was capped and stirred over 44 hours at room temperature. A needle was punctured through the vial cap to ensure the reaction is conducted under open air. This method produced a yellow dye with a λmax=436 nm. See also FIGS. 26A and 26B.
Compound 10 was weighed out (n=0.03 mmol) into a small vial equipped with a magnetic stir bar. To this, 1 mL of methanol was added and stirred until solubilized. L-lysine was then added to the stirred solution (2 equivalents) and the reaction mixture was capped and stirred overnight at room temperature. A needle was punctured through the vial cap to ensure the reaction is conducted under open air. This produced a yellow dye with a λmax=433 nm.
Compound 14 was weighed out (n=0.03 mmol) into a small vial equipped with a magnetic stir bar. To this, 1 mL of methanol was added and stirred until solubilized. L-lysine was then added to the stirred solution (2 equivalents) and the reaction mixture was capped and stirred overnight at room temperature. A needle was punctured through the vial cap to ensure the reaction is conducted under open air. This produces a red dye with a λmax=480 nm.
Compound 11 was weighed out (n=0.03 mmol) into a small vial equipped with a magnetic stir bar. To this, 2.5 mL of methanol was added followed by L-lysine (0.06 mmol, 2 equivalents). The reaction mixture was stirred for 24 hours at room temperature under open air. Compound 11 and Compound 11+lysine were diluted with methanol to make 0.06 mM solutions for UV-VIS characterization.
Compound 13 was weighed out (n=0.03 mmol) into a small vial equipped with a magnetic stir bar. To this, 1.5 mL of methanol was added followed by L-lysine (0.06 mmol, 2 equivalents). The reaction mixture was stirred for 24 hours at room temperature under open air. Compound 13+lysine were diluted with methanol to make 0.06 mM solutions for UV-VIS characterization.
Compound 5 was weighed out (n=0.05 mmol) into a small vial equipped with a magnetic stir bar. To this, 2.5 mL of methanol was added followed by L-lysine (0.1 mmol, 2 equivalents). The reaction mixture was stirred for 24 hours at room temperature under open air. Compound 5 and Compound 5+lysine were diluted with methanol to make 0.1 mM solutions for UV-VIS characterization.
Compound 7 was weighed out (n=0.04 mmol) into a small vial equipped with a magnetic stir bar. To this, 2 mL of methanol was added followed by L-lysine (0.08 mmol, 2 equivalents). The reaction mixture was stirred for 24 hours at room temperature under open air. Compound 7 and Compound 7+lysine were diluted with methanol to make 0.1 and 0.15 mM solutions, respectively, for UV-VIS characterization.
Compound 9 was weighed out (n=0.03 mmol) into a small vial equipped with a magnetic stir bar. To this, 1.5 mL of methanol was added followed by L-lysine (0.06 mmol, 2 equivalents). The reaction mixture was stirred for 24 hours at room temperature under open air. Compound 9 and Compound 9+lysine were diluted with methanol to make 0.1 and 0.15 mM solutions, respectively, for UV-VIS characterization.
Genipin was weighed out (n=0.03 mmol) into a small vial equipped with a magnetic stir bar. To this, 1.5 mL of methanol was added followed by L-lysine (0.06 mmol, 2 equivalents). The reaction mixture was stirred for 24 hours at room temperature under open air. Genipin+lysine were diluted with methanol to make 0.06 mM solutions for UV-VIS characterization.
Compound 12 was weighed out (n=0.03 mmol) into a small vial equipped with a magnetic stir bar. To this, 1.5 mL of methanol was added followed by L-lysine (0.06 mmol, 2 equivalents). The reaction mixture was stirred for 24 hours at room temperature under open air. […]

[2] = Color profile of single, binary and ternary dye compositions (Table 5); conditions: total dye in the final formulation 0.008-0.40 mmol/g

| SMILES | color produced upon reaction with amino acids [1] | color of solution after the addition of L-lysine [1] | color of L-lysine reaction solution after dilution [1] | color of solution before the addition of L-lysine [1] | color of dye produced by reaction with L-lysine [1] | λmax of dye produced after reaction with L-lysine [1] [nm] | colors observed with L-lysine (FIG. 33) [1] | other results |
| --- | --- | --- | --- | --- | --- | --- | --- | --- |
| COC(=O)C1=COC(O)C2C(C=O)=CCC12 (stereo not drawn) [Compound 1] | vibrant yellow | dark yellow | yellow | colorless | yellow | 436 | yellow | color of solution 1 hr after the addition of L-lysine [1]: dark brown; color of solution at 44 hours after the addition of L-lysine ([1]; 44 hours): brown |
| COC(=O)C1=COC(OC(C)=O)C2C(C=O)=CCC12 (stereo not drawn) [Compound 2] |  |  |  |  |  |  |  | Color when reacted with amino acids [2]: Vibrant Red |
| COC(=O)C1=COC(O)[C@@H]2C(/C=C/c3ccccc3)=CC[C@H]12 (stereo partly drawn) [Compound 7] | vibrant red |  |  |  |  |  |  |  |
| COC(=O)C1=COC(O)[C@@H]2C(/C=C/c3ccc([N+](=O)[O-])cc3)=CC[C@H]12 (stereo partly drawn) [Compound 9] | vibrant red |  |  |  |  |  |  |  |
| COC(=O)C1=COC(O)C2C1CC1COC12O (stereo not drawn) [Compound 10] |  | light brown |  |  | yellow | 433 |  |  |
| CCOC(=O)C(=CC1=CCC2C(C(=O)OC)=COC(OC(C)=O)C12)C(=O)OCC (stereo not drawn) [Compound 11] | vibrant red |  |  |  |  |  |  |  |
| COC(=O)C1=COC(O)C2C(C(=O)O)=CCC12 (stereo not drawn) [Compound 12] | vibrant green | light yellow | light yellow | colorless |  |  | light yellow | color of solution at 18 hours after the addition of L-lysine ([1]; 18 hours): dark brown |
| CCN(CC)C(=O)C1=CCC2C(C(=O)OC)=COC(O)C12 (stereo not drawn) [Compound 13] | vibrant orange |  |  |  |  |  |  |  |
| O=C1C(O)=C(c2ccccc2)C(=O)c2ccccc21 [Compound 14, 2-Hydroxy-3-phenyl-1,4-Naphthalenedione] |  |  |  |  | red | 480 |  |  |
| COC(=O)C1=CO[C@@H](O)[C@@H]2C(CO)=CC[C@H]12 [genipin, reference compound] |  | yellow | light blue | colorless |  |  | light blue | color of solution 1 hr after the addition of L-lysine [1]: dark blue |
